Measurements: PubChem BioAssay (NCI)
“And” between values parts separate entries of the source, which are not always exact repeats. Equal entries are not always repeated.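 Grown in 96-well plates, cells were treated for 48 hours with each compound at five concentrations. Insufficient inhibition: endpoint recorded as highest concentration tested. GI50 is the concentration that inhibits growth by half. TGI denotes the concentration required for complete inhibition of growth.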

What was measured:
Assay in all cases: inhibition of tumour cell growth, NCI panel, 48 h
TK-10 renal = test system: TK-10 renal
NCI-H23 lung = test system: NCI-H23 lung
MCF7 breast = test system: MCF7 breast
SK-MEL-2 melanoma = test system: SK-MEL-2 melanoma
HT29 colon = test system: HT29 colon
MDA-MB-435 = test system: MDA-MB-435
EKVX NSCLC = test system: EKVX NSCLC
NCI-H460 lung = test system: NCI-H460 lung
HOP-62 NSCLC = test system: HOP-62 NSCLC
K-562 leukemia = test system: K-562 leukemia

| SMILES | GI50 (TK-10 renal) | TGI (TK-10 renal) | GI50 (NCI-H23 lung) [µM] | TGI (NCI-H23 lung) [µM] | GI50 (MCF7 breast) [µM] | TGI (MCF7 breast) [µM] | GI50 (SK-MEL-2 melanoma) [µM] | TGI (SK-MEL-2 melanoma) [µM] | GI50 (HT29 colon) [µM] | TGI (HT29 colon) [µM] | GI50 (MDA-MB-435) [µM] | TGI (MDA-MB-435) [µM] | GI50 (EKVX NSCLC) [µM] | TGI (EKVX NSCLC) [µM] | GI50 (NCI-H460 lung) | TGI (NCI-H460 lung) [µM] | GI50 (HOP-62 NSCLC) | TGI (HOP-62 NSCLC) [µM] | GI50 (K-562 leukemia) [µM] | TGI (K-562 leukemia) [µM] |
| --- | --- | --- | --- | --- | --- | --- | --- | --- | --- | --- | --- | --- | --- | --- | --- | --- | --- | --- | --- | --- |
| C[C@]12CC[C@H]3[C@@H](C[C@@H]4N=C(c5ccc(O)cc5)S[C@@]45C[C@H](O)CC[C@]35C)[C@@H]1CC[C@@H]2O | > 100 µM | > 100 µM | 14 | > 100 | 3.34 | 21.5 | 4.42 | 69.4 | 3.13 | 20.4 | 16.4 | > 100 | 7.29 | > 100 | 4.94 µM | > 100 | 5.26 µM | 50.5 | 3.48 | > 100 |
| CC/C=C\C/C=C\C[C@H]1C/C=C2/C(=O)C=C[C@H]2C/C=C\CCC(=O)O1 | 4.72 µM | 12.9 µM | 3.03 | 8.31 | 0.824 | 11.8 | 3.45 | 9.94 | 2.55 | 6.49 | 3.03 | 8.91 | 3.81 | > 14.3 | 3.1 µM | 7.96 | 3.94 µM | 10.6 | 2.84 | > 14.3 |
| NC[C@@](O)(c1ccc(Cl)cc1)c1ccc(-c2cn[nH]c2)cc1 | 0.083 µM and 0.268 µM | 0.875 µM and 1.54 µM | – | > 100 | 1.1 | 2.54 | 1.89 | 4.5 | 1.98 | 7.26 | 1.81 | 3.61 | 0.556 | > 10 | 3.08 µM and 2.83 µM | > 100 | 2.04 µM and 0.89 µM | > 100 | 1.69 | 3.53 |
| C=C1N(C)c2ccc(Cl)cc2C1(C)C | 14.7 µM | 69.2 µM | 5.47 | > 100 | 6.65 | 58.7 | 13.5 | 42.8 | 3.24 | 18.6 | 3.7 | 23.5 | 4.59 | > 100 | 4.94 µM | 36.1 | 11.2 µM | 72.2 | 3.75 | > 100 |
| Cc1ccccc1/C=C1\CN(C(=O)OC(C)(C)C)C/C(=C\c2ccccc2C)C1=O | 3.65 µM | 15 µM | 2.2 | 4.99 | 2.21 | > 100 | 10.1 | 26.5 | 2.86 | 7.61 | 2.51 | 5.45 | 2.34 | 6.88 | 2.12 µM | 4.27 | 3.43 µM | 11.3 | 2.86 | > 100 |
| COc1ccc(CNc2nc(NCc3ccc(OC)cc3)c3n[nH]c(C(C)C)c3n2)cc1 | 8.29 µM | 24.4 µM | 4.09 | 18.3 | 3.31 | 13.9 | 1.98 | 4.93 | 1.61 | 10.7 | 3.17 | 11.1 | 8.09 | 23.8 | 2.98 µM | 31.8 | 10 µM | 24.4 | 3.13 | 11.7 |
| Cc1nc2cc(N)c(Cl)cc2[nH]1 | – | > 100 µM | – | > 100 | – | > 100 | – | > 100 | – | > 100 | – | > 100 | – | > 100 | – | > 100 | – | > 100 | – | > 100 |
| N=c1ccn2c(n1)O[C@@H]1[C@@H](O)[C@H](CO)O[C@@H]12 | > 100 µM | > 100 µM | 1.09 | > 100 | 0.234 | > 100 | 15.8 | > 100 | 17 | > 100 | 4.13 | > 100 | > 100 | > 100 | 0.446 µM | > 100 | 0.783 µM | 23 | > 100 | > 100 |
| COc1cc2c3c(c4c5ccccc5[nH]c4c2c(OC)c1OC)C(=O)N(CCN1CCCCC1)C3=O | 1.3 µM | 2.72 µM | 1.12 | 2.68 | 0.734 | 3.09 | 3.17 | 11.2 | 0.417 | 1.88 | 1.48 | 3.27 | 1.5 | 3.42 | 0.654 µM | 2.1 | 0.721 µM | 2.79 | 0.71 | – |
